Assays:
[1] = not told; cited from earlier work
[2] = Transmembrane transport and permeability, chorioamnion; assay type: in vitro ADME, human; details: 0.3 mg/mL
Source text: (§1) All human fetal membrane specimens were obtained at the time of cesarean section for obstetrical indications. The fetal membrane comprising chorioamniotic membrane (intact membranous tissue containing both amnion and chorion together) (n=7) and amnion (n=7) and chorion (n=7) were separately procured (size 6×9″). Each membrane was cut into 9 pieces for the 9 sets of diffusion chamber. The fresh membranes were collected immediately after the delivery, washed with PBS to remove the blood and stored in PBS until (˜1 h at 4° C.) it was mounted on the diffusion chamber (37±0.5° C.). Excess membranes were trimmed. The diffusion experiments were performed for 48 hours by mounting the membrane in the chamber to study the transport across the membranes. In all the experiments with chorioamniotic membrane the choriodecidua (maternal side) was placed facing the donor chamber and the amnionic epithelium (fetal side) was facing the receptor chamber. The chorion and amnion were mechanically separated by gently pulling the two membranes apart. For the chorion, the side attached to amnion was placed facing the receptor chamber and for the amnion the side attached to the chorion was placed facing the donor chamber in the diffusion apparatus. For histological evaluation, the tissue samples were collected at 0.5, 1, 2, 3 and 4 hours for and were fixed in 10% formalin overnight. Further, some sections were analyzed by hematoxylin and eosin (H & E) staining. The membrane thickness was measured using the Mitutoyo Super Caliper by placing the respective membranes between the two glass slides and subtracting the thickness of the glass slides without the membrane.
Permeation experiments were carried out using a two-chamber (donor and receptor) side-by-side Permegear diffusion cell with a chamber volume of 3 mL and with a diameter of 13 mm and a diffusional area of 1.32 cm^2. The fetal membranes (chorion and amnion together, amnion and chorion) each (n=9) were mounted between two halves of the donor and receptor cell (9 sets), which were further clamped together and sealed tightly with the rubber packing at the end of each glass chamber. […] The donor cell (volume 3 mL) was filled with solution of compounds whose permeability was evaluated. […] The concentration of compound in the receptor medium was determined using a Molecular Devices SpectroMax M2, UV visible and Fluorescent plate reader at ex 495/em 521. The cumulative amount of compound transported across the membrane in the receptor cell was determined using a calibration curve (a transport of 50% corresponds equilibrium achieved). […]
(§2) [formula] […] The thickness of the chorioamnion, chorion and amnion was 0.22 mm, 0.16 mm and 0.05 mm respectively (n=7), as measured with the help of Mitutoyo Super Caliper. […]

[3] = Transmembrane transport and permeability, amnion; assay type: in vitro ADME, human
Source text: as §1
(§3) Permeation experiments were carried out using a two-chamber (donor and receptor) side-by-side Permegear diffusion cell with a chamber volume of 3 mL and with a diameter of 13 mm and a diffusional area of 1.32 cm^2. The fetal membranes (chorion and amnion together, amnion and chorion) each (n=9) were mounted between two halves of the donor and receptor cell (9 sets), which were further clamped together and sealed tightly with the rubber packing at the end of each glass chamber. The receptor cell (volume 3 mL) was filled with sterile PBS (pH 7.4). The donor cell (volume 3 mL) was filled with solution of compounds whose permeability was evaluated. […] The system was maintained at 37° C. by using a circulating water bath and a jacket surrounding each cell. The donor and receiving medium was continuously stirred (600 rpm) with a magnetic bar to avoid stagnant aqueous diffusion layer effects. Aliquots (200 μL) were collected from the receptor cell every 30 min till first 6 hours and at predetermined intervals thereafter and replaced with equal volume of PBS to maintain sink conditions throughout the study. […] The concentration of compound in the receptor medium was determined using a Molecular Devices SpectroMax M2, UV visible and Fluorescent plate reader at ex 495/em 521. The cumulative amount of compound transported across the membrane in the receptor cell was determined using a calibration curve (a transport of 50% corresponds equilibrium achieved). All the experiments were conducted in dark room. All experiments were done in triplicate and the results are reported as mean±STDev.
[formula] To determine the permeability coefficient, P, a plot of −V/2A ln (1−2Ct/C0) against t was constructed and linear fitting was performed. The slope of the linear portion of the graph yields a permeability coefficient. The thickness of the chorioamnion, chorion and amnion was 0.22 mm, 0.16 mm and 0.05 mm respectively (n=7), as measured with the help of Mitutoyo Super Caliper. […] The FIGS. 93A-C and FIG. 94 show the plots used for calculation of the permeability and the correlation in all the cases ranged from 0.96 to 0.99.

[4] = Transmembrane transport and permeability, chorion; assay type: in vitro ADME, human; details: 0.3 mg/mL
Source text: as §1, §3, §2

[5] = Permeability across the rabbit amniotic membrane (side by side diffusion chamber); assay type: in vitro ADME; details: in 1 hour, 37° C.
Procedure: The permeability of the G4-PAMAM-FITC across the normal rabbit amniotic membrane and endotoxin treated rabbit amniotic membrane was studied using a side by side Permegear diffusion chamber at 37° C. for 48 hours. Endotoxin treated membranes were used to mimic the condition of E. coli infection in uterus. The freshly excised rabbit membranes obtained after sacrificing the rabbit was placed in between the donor and receptor chamber.

[6] = Brain biodistribution of FITC-G4-OH after subarachnoid/subdural injection (microscopy, HPLC); assay type: in vivo, rabbit; details: 24 hours after injection into CSF
Procedure: Animals in each group were euthanized 24 hours after subarachnoid administration of FITC-G4-OH with an overdose of pentobarbital (120 mg/kg administered intra-peritoneal). Following administration of the drug, animals were secured to a stainless steel surgical apparatus, the heart was exposed rapidly and a butterfly needle was inserted and secured in the left apex of the heart, the vena cava was incised and perfusion was initiated. Animals were perfused under pressure with 30 mL chilled physiological saline (0.9%) and 120 mL of 4% paraformaldehyde in phosphate buffer (0.1 M, pH 7.4) at a constant rate of 5 ml/min using a constant pressure pump, brains were removed and immersed in the same fixative for 48 hours, cryoprotected using graded solutions of sucrose and frozen at −80° C. until they were sectioned. […]
Brain tissue samples weighing approximately 1 mg were collected from healthy pups and CP pups and used for analysis. […] The samples were analyzed by HPLC and the amount of dendrimer-FITC quantified using the standard calibration curve for FITC-G4-OH. To estimate the fluorescence as a measure of concentration of FITC-G4-OH localized in hippocampus or cortex, the samples were analyzed by reverse phase-HPLC and the amount was quantified using the standard calibration curve for FITC-G4-OH. […]

Compound | in vitro permeability [1] | Permeability coefficient, Chorioamnion [2] | Permeability coefficient, Amnion ([3]; 0.3 mg/mL) | transport across amnion ([3]; in 2 hours, 0.3 mg/mL) [%] | transport across amnion ([3]; in 5 hours) [%] | Permeability coefficient, Chorion [4] | crossed the membrane [5] [%] | regional and cellular distribution in brain [6]
CC(C)(N)C(=O)O [2-aminoisobutyrate] | 1.5×10^−6 cm^2/s | – | – | – | – | – | – | –
fluorescein isothiocyanate [FITC, reference compound] | – | 7.93×10^−7 cm^2/s | 2.26×10^−6 cm^2/s | 49 | 50 | 1.32×10^−6 cm^2/s | 50 | non-specific uptake in all layers of the cortex and ventricular region

From patent publication US10172951B2, “Dendrimer based nanodevices for therapeutic and imaging purposes” (priority 2009, dated 2019)
